pIC50: −log10 of the molar value.
Tested on: LPS induced TNF release
Assay: Lipopolysaccharide-Activated THP1 Cell TNF Production Assay
Type: cell-based
Conditions: Homo sapiens, THP-1; THP1 cells, bacterial LPS, TNF-α secretion at 37° C. for 3 h
Experimental: Lipopolysaccharide-Activated THP1 Cell TNF Production Assay
THP1 cells are resuspended in fresh THP1 media (RPMI 1640, 10% heat-inactivated FBS, 1xPGS, 1XNEAA, plus 30 μM βME) at a concentration of 1E6/mL. One hundred microliters of cells per well are plated in a polystyrene 96-well tissue culture. One microgram per mL of bacterial LPS is prepared in THP1 media and is transferred to the wells. Test compounds are dissolved in 100% DMSO and are serially diluted 3 fold in a polypropylene 96-well microtiter plate (drug plate). HI control and LO control wells contain only DMSO. One microliter of test compound from the drug plate followed by 10 μL of LPS are transferred to the cell plate. The treated cells are induced to synthesize and secrete TNF-α at 37° C. for 3 h. Forty microliters of conditioned media are transferred to a 96-well polypropylene plate containing 110 μL of ECL buffer (50 mM Tris-HCl pH 8.0, 100 mM NaCl, 0.05% Tween 20, 0.05% NaN3 and 1% FBS) supplemented with 0.44 nM MAB610 monoclonal Ab (R&D Systems), 0.34 nM ruthenylated AF210NA polyclonal Ab (R&D Systems) and […] sheep anti-mouse M280 Dynabeads (Dynal). After a 2 h incubation at room temperature with shaking, the reaction is read on the ECL M8 Instrument (IGEN Inc.). A low voltage is applied to the ruthenylated TNF-α immune complexes, which in the presence of TPA (the active component in Origlo), results in a cyclical redox reaction generating light at […]. The amount of secreted TNF-α in the presence of compound compared with that in the presence of DMSO vehicle alone (HI control) is calculated using the formula: % control (POC)=(cpd−average LO)/(average HI−average LO)*100. Data (consisting of POC and inhibitor concentration in μM) is fitted to a 4-parameter equation (y=A+((B−A)/(1+((x/C)^D))), where A is the minimum y (POC) value, B is the maximum y (POC), C is the x (cpd concentration) at the point of inflection and D is the slope factor) using a Levenburg-Marquardt non-linear regression algorithm.

Compound | pIC50
Cn1c(N2CCCC2CO)cc(-c2ccncc2)c(-c2ccc(Cl)cc2)c1=O (centres unmarked) [Example 17, 3-(4-chlorophenyl)-6-[2-(hydroxymethyl)pyrrolidinyl]-1-methyl-4-(4-pyridyl)-hydropyridin-2-one] | ≥ 4.70
Cn1c(C2CCCN2CCN)cc(-c2ccncc2)c(-c2ccc3ccccc3c2)c1=O (centres unmarked) [Example 28, 6-[1-(2-Amino-ethyl)-pyrrolidin-2-yl]-1-methyl-3-naphthalen-2-yl-1H-[4,4′]bi-pyridinyl-2-one] | ≥ 4.70
CC(C)NC[C@@H]1CCCN1c1nc(-c2ccncc2)c(-c2ccc(Cl)cc2)c(=O)n1C [Example 2] | ≥ 4.70
Cn1c(C2CNC(CO)C2)cc(-c2ccncc2)c(-c2ccc3ccccc3c2)c1=O (centres unmarked) [Example 15, 6-[5-(Hydroxymethyl)pyrrolidin-3-yl]-1-methyl-3-(2-naphthyl)-4-(4-pyridyl)-hydropyridin-2-one] | ≥ 4.70
CC(C)N[C@H](Cc1ccccc1)CN1CCC(c2cc(-c3ccncc3)c(-c3ccc4ccccc4c3)c(=O)n2C)CC1 [Example 20, 1-{(2R)-Isopropylamino-3-phenyl-propyl}-1′-methyl-5′-naphthalen-2-yl-1,2,3,4,5,6-hexahydro-1′H-[4,2′;4′,4″]terpyridin-6′-one] | ≥ 4.70
CC(C)N1CC(c2cc(-c3ccncc3)c(-c3ccc4ccccc4c3)c(=O)n2C)CC1CO (centres unmarked) [Example 16, 6-[5-(hydroxymethyl)-1-(methylethyl)pyrrolidin-3-yl]-1-methyl-3-(2-naphthyl)-4-(4-pyridyl)hydropyridin-2-one] | ≥ 4.70
Cn1c(C2CCCN2CCNC(=O)OC(C)(C)C)cc(-c2ccncc2)c(-c2ccc3ccccc3c2)c1=O (centres unmarked) [Example 27, {2-[2-(1-Methyl-5-naphthalen-2-yl-6-oxo-1,6-dihydro-[4,4′]bipyridinyl-2-yl)-pyrrolidin-1-yl]-ethyl}-carbamic acid tert-butyl ester] | ≥ 4.70
CC(C)N[C@@H](Cc1ccccc1)CN1CCC(c2cc(-c3ccncc3)c(-c3ccc4ccccc4c3)c(=O)n2C)CC1 [Example 23, 1-{(2S)-Isopropylamino-3-phenyl-propyl}-1′-methyl-5′-naphthalen-2-yl-1,2,3,4,5,6-hexahydro-1′H-[4,2′;4′,4″]terpyridin-6′-one] | ≥ 4.70
CC(C)NC[C@H]1CCCN1c1nc(-c2ccncc2)c(-c2ccc(Cl)cc2)c(=O)n1C [Example 1] | ≥ 4.70
Cn1c(C2CCN(C[C@@H](N)Cc3ccccc3)CC2)cc(-c2ccncc2)c(-c2ccc3ccccc3c2)c1=O [Example 22, 1-{(2S)-Amino-3-phenyl-propyl}-1′-methyl-5′-naphthalen-2-yl-1,2,3,4,5,6-hexahydro-1′H-[4,2′;4′,4″]terpyridin-6′-one] | ≥ 4.70
CC(C)NC[C@H]1CCCN1c1nc(-c2ccncc2)c(-c2cccc(C3CC3)c2)c(=O)n1C [Example 6, 5-(3-Cyclopropyl-phenyl)-2-[2-(isopropylamino-methyl)-pyrrolidin-1-yl]-3-methyl-6-pyridin-4-yl-3H-pyrimidin-4-one] | ≥ 4.70
C=Cc1cccc(-c2c(-c3ccncc3)nc(N3CCC[C@@H]3CNC(C)C)n(C)c2=O)c1 [Example 5, 2-[2-(Isopropylamino-methyl)-pyrrolidin-1-yl]-3-methyl-6-pyridin-4-yl-5-(3-vinyl-phenyl)-3H-pyrimidin-4-one] | ≥ 4.70
Cn1c(C2CCN(CCNC(=O)OC(C)(C)C)C2)cc(-c2ccncc2)c(-c2ccc3ccccc3c2)c1=O (centres unmarked) [Example 24, {2-[3-(1-Methyl-5-naphthalen-2-yl-6-oxo-1,6-dihydro-[4,4′]bipyridinyl-2-yl)-pyrrolidin-1-yl]-ethyl}-carbamic acid tert-butyl ester] | ≥ 4.70
Cn1c(C2CCN(C[C@@H](Cc3ccccc3)NC(=O)OC(C)(C)C)CC2)cc(-c2ccncc2)c(-c2ccc3ccccc3c2)c1=O [Example 18, [(1R)-Benzyl-2-(1′-methyl-5′-naphthalen-2-yl-6′-oxo-3,4,5,6,1′,6′-hexahydro-2H-[4,2′;4′,4″]terpyridin-1-yl)-ethyl]-carbamic acid tert-butyl ester] | ≥ 4.70
Cn1c(C2CCN(C[C@H](Cc3ccccc3)NC(=O)OC(C)(C)C)CC2)cc(-c2ccncc2)c(-c2ccc3ccccc3c2)c1=O [Example 21, [(1S)-Benzyl-2-(1′-methyl-5′-naphthalen-2-yl-6′-oxo-3,4,5,6,1′,6′-hexahydro-2H-[4,2′;4′,4″]terpyridin-1-yl)-ethyl]-carbamic acid tert-butyl ester] | ≥ 4.70
CC(C)NCC1CCCN1c1cc(-c2ccncc2)c(-c2ccc3ccccc3c2)nn1 (centres unmarked) [Example 14, Isopropyl-[1-(6-naphthalen-2-yl-5-pyridin-4-yl-pyridazin-3-yl)-pyrrolidin-2-ylmethyl]-amine] | ≥ 4.70
Cn1c(C2CCN(CC(C)(C)O)CC2)cc(-c2ccncc2)c(-c2ccc3ccccc3c2)c1=O [Example 13, 1-(2-Hydroxy-2-methyl-propyl)-1′-methyl-5′-naphthalen-2-yl-1,2,3,4,5,6-hexahydro-1′H-[4,2′;4′,4″]terpyridin-6′-one] | ≥ 4.70
Cc1cccc(-c2c(-c3ccncc3)nc(N3CCC[C@@H]3CNC(C)C)n(C)c2=O)c1 [Example 7, 2-[2-(Isopropylamino-methyl)-pyrrolidin-1-yl]-3-methyl-6-pyridin-4-yl-5-m-tolyl-3H-pyrimidin-4-one] | ≥ 4.70
CC(C)NC[C@H]1CCCN1c1c(Cl)c(-c2ccncc2)c(-c2ccc3ccccc3c2)c(=O)n1C (stereo in doubt) [Example 29, 5-Chloro-6-[2-(isopropylamino-methyl)-pyrrolidin-1-yl]-1-methyl-3-naphthalen-2-yl-1H-[4,4′]bipyridinyl-2-one] | ≥ 4.70

Continued, values first:

pIC50 | Compound
≥ 4.70 | CC(C)NCC1CCCN1c1cc(-c2ccncc2)c(-c2ccc(Cl)cc2)c(=O)n1C (centres unmarked) [Example 31, 3-(4-Chlorophenyl)-1-methyl-6-(2-{[(methylethyl)amino]methyl}pyrrolidinyl)-4-(4-pyridyl)hydropyridin-2-one]
≥ 4.70 | C[C@@H](O)CN1CCC(c2cc(-c3ccncc3)c(-c3ccc4ccccc4c3)c(=O)n2C)CC1 [Example 11, 1-(2R-Hydroxy-propyl)-1′-methyl-5′-naphthalen-2-yl-1,2,3,4,5,6-hexahydro-1′H-[4,2′;4′,4″]terpyridin-6′-one]
≥ 4.70 | COC[C@@H]1CCCN1c1nc(-c2ccnc(N[C@@H](C)c3ccccc3)c2)c(-c2cccc(C)c2)c(=O)n1C [Example 10, 2-(2-Methoxymethyl-pyrrolidin-1-yl)-3-methyl-6-[2-(1-phenyl-ethylamino)-pyridin-4-yl]-5-m-tolyl-3H-pyrimidin-4-one]
≥ 4.70 | COC[C@@H]1CCCN1c1nc(-c2ccnc(Cl)c2)c(-c2cccc(C)c2)c(=O)n1C [Example 9, 6-(2-Chloro-pyridin-4-yl)-2-(2-methoxymethyl-pyrrolidin-1-yl)-3-methyl-5-m-tolyl-3H-pyrimidin-4-one]
≥ 4.70 | CC(C)NC[C@H]1CCCN1c1cc(-c2ccncc2)c(-c2ccc3ccccc3c2)c(=O)n1C [Example 30, 6-[2-(Isopropylamino-methyl)-pyrrolidin-1-yl]-1-methyl-3-naphthalen-2-yl-1H-4[4,4′]bipyridinyl-2-one]
≥ 4.70 | CC(C)NC[C@H]1CCCN1c1nc(-c2ccncc2)c(-c2ccc3ccccc3c2)c(=O)n1C [Example 8, 2-[2-(Isopropylamino-methyl)-pyrrolidin-1-yl]-3-methyl-5-naphthalen-2-yl-6-pyridin-4-yl-3H-pyrimidin-4-one]
≥ 4.70 | Cn1c(C2CCN(CC(C)(C)O)C2)cc(-c2ccncc2)c(-c2ccc3ccccc3c2)c1=O (centres unmarked) [Example 26, 6-[1-(2-Hydroxy-2-methyl-propyl)-pyrrolidin-3-yl]-1-methyl-3-naphthalen-2-yl-1H-[4,4′]bipyridinyl-2-one]
≥ 4.70 | CC(C)NC[C@H]1CCCN1c1nc(-c2ccncc2)c(-c2cccc(Br)c2)c(=O)n1C [Example 4, 5-(3-Bromo-phenyl)-2-[2-(isopropylamino-methyl)-pyrrolidin-1-yl]-3-methyl-6-pyridin-4-yl-3H-pyrimidin-4-one]
≥ 4.70 | CC(O)CN1CCC(c2cc(-c3ccncc3)c(-c3ccc4ccccc4c3)c(=O)n2C)C1 (centres unmarked) [Example 25, 6-[1-(2-Hydroxy-propyl)-pyrrolidin-3-yl]-1-methyl-3-naphthalen-2-yl-1H-[4,4′]bipyridinyl-2-one]
≥ 4.70 | Cn1c(C2CCN(C[C@H](N)Cc3ccccc3)CC2)cc(-c2ccncc2)c(-c2ccc3ccccc3c2)c1=O [Example 19, 1-{(2R)-Amino-3-phenyl-propyl}-1′-methyl-5′-naphthalen-2-yl-1,2,3,4,5,6-hexahydro-1′H-[4,2′;4′,4″]terpyridin-6′-one]

Reference: patent US7026326B2, “Substituted heterocyclic compounds and methods of use” (Amgen Inc., priority 2002, dated 2006)
